Assay results as given in paper PMC12106615, “Population pharmacokinetics of colistin sulfate in critically ill patients based on NONMEM” (Scientific Reports, 2025).
Counter-ions that a name gives are not always drawn. Bridge positions count the residues as written; N and C are the ends. Square brackets hold non-standard residues; d marks the D form. Peptide text beside a SMILES is read from it. * marks the point of attachment. X1 = CC[C@H](C)CCCCC(=O)*; Dab = NCC[C@H](N)C(=O)O

Assays:
[1] = Population pharmacokinetic (PPK) model of colistin sulfate, NONMEM, two-compartment with first-order elimination; format: in vivo, human
Method: PPK analyses were performed using NONMEM version 7.5 (Icon Development Solutions, Ellicott City, MD, USA) and Pirana version 3.0. Ggplot2 version 3.5.1 package in R software (version 4.1.3, R-project.org) and Xpose version 4.3.2 packages were used to generate line plots and diagnostic plots, respectively.
One- and two-compartment structural models with first-order elimination characteristics of colistin sulfate were constructed using NONMEM software. Between-subject variability (BSV) was assessed using an exponential function. Within-subject variability (WSV) was assessed by additive, proportional, or combined (additive plus proportional) models, while model with the smallest variability represented the best ones. The base model was chosen according to diagnostic plots and goodness-of-fit criteria, including improvement of the OFV and precision and plausibility of parameter estimation. The factors influencing fixed effects were screened based on our previous study. Covariates were included in the base models in a stepwise manner, and testing was performed by using the following statistical criteria: ΔOFV > 3.84, P < 0.05. The covariate was considered to have a significant influence at ΔOFV > 3.84 and retained in the model or eliminated otherwise. All covariates with significant influence on models were then incorporated into the base models to construct full regression models. The full regression models were then subjected to reverse elimination. The included covariates were tested using stricter statistical criteria (ΔOFV > 6.63, P < 0.01), and covariates showing a small influence on the models were eliminated, thereby yielding the final model.
Goodness-of-fit plots, nonparametric bootstrap, and pc-VPC were used to evaluate the final model and parameter estimates. A nonparametric bootstrap procedure was utilized to assess the performance and stability of the final model. Random sampling and individual replacement were used to generate 1000 replicate datasets. The median and 95% CI values of the final model parameters obtained using bootstrap validation were then compared, and the predictive performance of the model was validated. The dataset was simulated 1000 times using the $SIMULATION block in NONMEM. The 90% CI values for the 5 th, 50 th, and 95 th percentiles of the simulated concentrations were calculated. The time curves were then plotted after the last dose and compared with the observed concentrations for prediction and variability correction using pc-VPC.

[2] = 14 patients with successful treatment; ref Yu et al.[14]; cited from earlier work
Method: The steady-state plasma concentration (Css.avg) of these 129 patients was 0.93 ± 0.35 mg/L, which was inconsistent with the value (2.0–2.4 mg/L) jointly recommended by the multidisciplinary expert consensus[17] on the rational clinical use of colistin in China. This consensus considered that the in vitro antimicrobial activit ...

[3] = Clinical outcome (14-day mortality) of patients receiving intravenous colistin sulfate; format: in vivo, human; details: 178 critically ill patients, mostly combination therapy
Description: (§1) The retrospective study subjects were patients admitted to Beijing Electric Power Hospital, Beijing, China, between May 2022 and May 2024. The study design conformed to the principles of the Declaration of Helsinki, and the study was approved by the Ethics Research Committee of Beijing Electric Power Hospital (approval no: n090327). Written informed consent was obtained from all patients or their legal representatives. In clinical practice, adult patients who had received intravenous colistin sulfate (Specification: 0.5 MU; Asia Pioneer Pharmaceutical Co., Ltd., Shanghai, China) with at least one measurement of colistin sulfate concentration were eligible for inclusion. The inclusion criteria were as follows: (1) age ≥ 18 years, (2) patients who had received colistin sulfate treatment, and (3) patients with at least one measurement of colistin sulfate concentration. The exclusion criteria were as follows: (1) patients who died within 24 h after receiving colistin sulfate treatment, (2) patients who received nebulized colistin sulfate and intrathecal colistin sulfate, and (3) patients who also received continuous renal replacement therapy during colistin sulfate treatment. […] The RIFLE criteria (risk, injury, failure, loss, and end-stage kidney disease), estimated with exclusion of the urinary output criterion, were used for detection and stratification of acute kidney injury.

[4] = previous studies; ref [14],[25]–[29]; cited from earlier work
Description: Advanced age, the presence of multiple coexisting diseases, severe infections, low fluid replacement volume, and exposure to combination therapy with multiple drugs are recognized as risk factors for the development of acute kidney injury associated with colistin sulfate treatment. If colistin sulfate is the only factor considered, a Css level of ...

[5] = Nephrotoxicity / acute kidney injury by RIFLE criteria; format: in vivo, human; details: 178 critically ill patients, empirical intravenous colistin sulfate; RIFLE criteria without urinary output criterion
Description: as §1

[6] = 178 critically ill patients, 364 concentrations, intravenous
[7] = nonparametric bootstrap, 1000 replicate datasets

CC[C@H](C)CCCCC(=O)N[C@@H](CCN)C(=O)N[C@H](C(=O)N[C@@H](CCN)C(=O)N[C@H]1CCNC(=O)[C@H]([C@@H](C)O)NC(=O)[C@H](CCN)NC(=O)[C@H](CCN)NC(=O)[C@H](CC(C)C)NC(=O)[C@@H](CC(C)C)NC(=O)[C@H](CCN)NC1=O)[C@@H](C)O [colistin sulfate] (X1-[Dab]T[Dab][Dab][Dab][dL]L[Dab][Dab]T; lactam 4-C)
tvQ, typical value of inter-compartmental clearance, final model estimate [1, 6]: 1.63 L/h
tvV2, typical value of volume of peripheral compartment distribution, final model estimate [1, 6]: 109 L
tvV1, typical value of volume of central compartment distribution, final model estimate ([1]; 178 critically ill patients, 364 concentrations, intravenous, weight as covariate): 49.7 L
dVdWT, exponential parameter coefficient of WT to V1, final model estimate ([1]; final PPK model): 1.2
clearance ([1]; human, plasma, 178 critically ill patients, 364 concentrations, intravenous, CrCL as covariate, read-out: tvCL, typical value of central compartment clearance, final model estimate (converted)): 44.3 mL/min
dCLdCrCL, bootstrap median [1, 7]: 0.466
dVdWT, bootstrap median [1, 7]: 1.28
tvCL, bootstrap median [1, 7]: 2.67 L/h
tvQ, bootstrap median [1, 7]: 1.67 L/h
tvV1, bootstrap median [1, 7]: 50.04 L
tvV2, bootstrap median [1, 7]: 103.65 L
Css.avg of colistin sulfate [2]: 1730 ± 980 ng/mL
14-day mortality rate [3]: 27.53%
Incidence rate of nephrotoxicity induced by colistin sulfate [4]: less than 21.25%
Acute kidney injury (nephrotoxicity) incidence [5]: 11.8%
